Laboratory results taken from ChEMBL document CHEMBL5223114, “Design, synthesis and biological evaluation of novel macrocyclic derivatives bearing aniline pyrimidine scaffolds as EGFR-TKIs” (Bioorg Med Chem Lett, 2022).

Key:
[1] = test system: BaF3; assay: Antiproliferative activity against mouse BaF3 cells harboring EGFR del19/T790M/C797S triple mutant assessed as inhibition of cell growth incubated for 72 hrs by CCK-8 assay; type: functional, cell-based; conditions: BaF3, 72 h
[2] = test system: BaF3; assay: Antiproliferative activity against mouse BaF3 cells harboring EGFR del19/T790M double mutant assessed as inhibition of cell growth incubated for 72 hrs by CCK-8 assay; type: functional, cell-based; conditions: BaF3, 72 h
[3] = target: Epidermal growth factor receptor (Homo sapiens, UniProt P00533, 746-750DEL/C797S/T790M); assay: Inhibition of EGFR d746-750/T790M/C797S triple mutant (unknown origin)
[4] = target: Epidermal growth factor receptor (Homo sapiens, UniProt P00533, 746-750DEL/T790M); assay: Inhibition of EGFR d746-750/T790M double mutant (unknown origin)
[5] = target: Epidermal growth factor receptor (Homo sapiens, UniProt P00533, L858R/T790M); assay: Inhibition of EGFR L858R/T790M double mutant (unknown origin)
Chain of Epidermal growth factor receptor (Homo sapiens, UniProt P00533, L858R/T790M) (P00533 25-1210 T790M/L858R limits assumed): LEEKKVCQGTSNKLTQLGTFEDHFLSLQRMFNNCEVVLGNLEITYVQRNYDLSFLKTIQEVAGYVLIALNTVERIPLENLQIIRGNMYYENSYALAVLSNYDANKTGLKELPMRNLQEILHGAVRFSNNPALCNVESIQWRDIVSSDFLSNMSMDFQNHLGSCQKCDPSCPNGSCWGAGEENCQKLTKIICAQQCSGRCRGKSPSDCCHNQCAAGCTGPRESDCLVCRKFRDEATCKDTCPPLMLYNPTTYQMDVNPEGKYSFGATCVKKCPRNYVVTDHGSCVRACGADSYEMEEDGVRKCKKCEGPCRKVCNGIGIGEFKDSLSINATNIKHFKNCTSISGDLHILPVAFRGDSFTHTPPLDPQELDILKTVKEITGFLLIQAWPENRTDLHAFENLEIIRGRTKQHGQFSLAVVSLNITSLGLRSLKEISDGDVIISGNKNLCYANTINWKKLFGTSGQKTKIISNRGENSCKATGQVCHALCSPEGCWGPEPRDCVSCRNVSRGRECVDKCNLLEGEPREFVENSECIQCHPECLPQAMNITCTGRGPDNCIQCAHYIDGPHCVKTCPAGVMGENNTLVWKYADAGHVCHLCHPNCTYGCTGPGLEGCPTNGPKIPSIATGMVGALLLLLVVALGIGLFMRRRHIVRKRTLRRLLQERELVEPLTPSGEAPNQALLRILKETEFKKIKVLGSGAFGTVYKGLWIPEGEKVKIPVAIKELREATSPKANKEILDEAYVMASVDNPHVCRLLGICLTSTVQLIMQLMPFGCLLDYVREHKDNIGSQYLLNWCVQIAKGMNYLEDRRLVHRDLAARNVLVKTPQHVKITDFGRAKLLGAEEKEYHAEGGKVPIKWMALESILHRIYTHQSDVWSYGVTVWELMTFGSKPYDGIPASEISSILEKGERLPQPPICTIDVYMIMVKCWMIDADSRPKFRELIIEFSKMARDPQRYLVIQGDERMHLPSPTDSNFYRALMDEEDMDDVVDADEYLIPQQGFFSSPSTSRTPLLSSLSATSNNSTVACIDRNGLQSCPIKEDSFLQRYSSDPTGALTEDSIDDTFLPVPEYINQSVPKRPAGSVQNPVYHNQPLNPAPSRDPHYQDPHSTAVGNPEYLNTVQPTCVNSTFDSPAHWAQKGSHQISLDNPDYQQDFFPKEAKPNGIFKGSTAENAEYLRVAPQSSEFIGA

Chain of Epidermal growth factor receptor (Homo sapiens, UniProt P00533, 746-750DEL/C797S/T790M) (P00533 whole entry, looked up, stated change not applied): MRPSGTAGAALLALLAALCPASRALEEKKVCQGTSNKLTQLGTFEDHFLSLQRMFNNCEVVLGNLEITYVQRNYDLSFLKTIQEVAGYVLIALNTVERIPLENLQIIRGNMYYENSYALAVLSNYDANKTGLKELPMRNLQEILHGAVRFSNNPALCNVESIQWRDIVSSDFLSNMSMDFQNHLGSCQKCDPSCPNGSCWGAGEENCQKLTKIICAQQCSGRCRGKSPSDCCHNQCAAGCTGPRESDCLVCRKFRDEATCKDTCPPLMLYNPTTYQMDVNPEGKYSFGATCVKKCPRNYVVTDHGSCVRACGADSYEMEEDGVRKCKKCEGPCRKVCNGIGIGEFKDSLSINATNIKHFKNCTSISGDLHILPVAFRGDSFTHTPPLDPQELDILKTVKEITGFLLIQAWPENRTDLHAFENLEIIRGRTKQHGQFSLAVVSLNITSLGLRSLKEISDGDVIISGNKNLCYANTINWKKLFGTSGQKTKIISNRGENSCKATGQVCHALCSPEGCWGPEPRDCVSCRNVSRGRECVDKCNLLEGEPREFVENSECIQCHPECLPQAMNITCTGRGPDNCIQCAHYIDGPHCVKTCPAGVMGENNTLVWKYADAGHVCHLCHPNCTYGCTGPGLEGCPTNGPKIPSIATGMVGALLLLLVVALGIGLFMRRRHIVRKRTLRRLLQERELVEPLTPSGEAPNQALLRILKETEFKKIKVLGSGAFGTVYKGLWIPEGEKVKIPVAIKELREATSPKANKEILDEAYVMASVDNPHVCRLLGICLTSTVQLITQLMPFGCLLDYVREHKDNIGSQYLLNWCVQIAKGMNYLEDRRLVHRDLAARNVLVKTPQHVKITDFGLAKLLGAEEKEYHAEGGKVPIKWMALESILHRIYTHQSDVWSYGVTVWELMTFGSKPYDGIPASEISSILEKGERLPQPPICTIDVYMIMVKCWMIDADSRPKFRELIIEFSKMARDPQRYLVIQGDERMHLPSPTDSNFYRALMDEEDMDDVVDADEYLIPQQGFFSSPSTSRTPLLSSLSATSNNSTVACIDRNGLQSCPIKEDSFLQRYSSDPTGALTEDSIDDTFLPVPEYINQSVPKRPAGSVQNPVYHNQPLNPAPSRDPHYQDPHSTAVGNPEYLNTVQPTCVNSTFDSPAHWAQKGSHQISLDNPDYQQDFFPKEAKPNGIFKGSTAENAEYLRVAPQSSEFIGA
Chain of Epidermal growth factor receptor (Homo sapiens, UniProt P00533, 746-750DEL/T790M) (P00533 whole entry, looked up, stated change not applied): as above

| SMILES | IC50 [1] [µM] | IC50 [2] [µM] | IC50 [3] [µM] | IC50 [4] [µM] | IC50 [5] [µM] |
| --- | --- | --- | --- | --- | --- |
| C=CC(=O)N1CCCCCCCn2cc(c3ccccc32)-c2ccnc(n2)Nc2cc1ccc2OC | 0.867 | 0.148 | > 0.1 | 0.00065 | 0.01 |
| C=CC(=O)N1CCCCCCn2cc(c3ccccc32)-c2ccnc(n2)Nc2cc1c(OCCCF)cc2F | 0.835 | 0.063 | > 0.1 | 0.0006 | 0.0132 |
| C=CC(=O)N1CCCCCCn2cc(c3ccccc32)-c2ccnc(n2)Nc2cc1ccc2F | 0.695 | 0.035 | > 0.1 | 0.00022 | 0.00649 |
| C=CC(=O)N1CCCCCCCn2cc(c3ccccc32)-c2ccnc(n2)Nc2cc1c(OCCCF)cc2F | – | – | > 0.1 | 0.00296 | 0.0257 |
| C=CC(=O)N1CCCCCCCCCn2cc(c3ccccc32)-c2ccnc(n2)Nc2cccc1c2 | – | – | > 0.1 | 0.0132 | 0.0252 |
| C=CC(=O)N1CCCCCCn2cc(c3ccccc32)-c2ccnc(n2)Nc2cccc1c2 | 0.839 | 0.215 | – | – | – |
| C=CC(=O)N1CCCCCCCCn2cc(c3ccccc32)-c2ccnc(n2)Nc2cccc1c2 | – | – | 0.0865 | 0.00703 | 0.0201 |
| C=CC(=O)N1CCCCCCn2cc(c3ccccc32)-c2ccnc(n2)Nc2cc1ccc2OC | 0.893 | 0.051 | > 0.1 | 0.00047 | 0.00831 |
| C=CC(=O)N1CCCCCCCn2cc(c3ccccc32)-c2ccnc(n2)Nc2cc1ccc2F | 0.712 | 0.213 | – | – | – |
| C=CC(=O)N1CCCCCCCn2cc(c3ccccc32)-c2ccnc(n2)Nc2cccc1c2 | 0.811 | 0.218 | 0.0553 | 0.00055 | 0.00345 |
| C=CC(=O)Nc1cc(Nc2nccc(-c3cn(C)c4ccccc34)n2)c(OC)cc1N(C)CCN(C)C [OSIMERTINIB] | 0.859 | 0.033 | – | – | – |
